According to the NIST ThermoML archive (doi:10.1021/je9005757):

Test: cn = amount concentration of the nth substance listed, in mol/dm3
Conditions: 101 kPa, Liquid; for molar conductivity: Shedlovsky-type conductance cell; for binary diffusion coefficient: Open capillary

CN[C@H](C)[C@@H](O)c1ccccc1.[Cl-].[H+] [D-α-(1-methylaminoethyl)benzyl alcohol] + O
Conditions	binary diffusion coefficient, 298.15 K [m2/s]	binary diffusion coefficient, 310.15 K [m2/s]	molar conductivity, 283.15 K [S·m2/mol]	molar conductivity, 293.15 K [S·m2/mol]	molar conductivity, 298.15 K [S·m2/mol]	molar conductivity, 303.15 K [S·m2/mol]	molar conductivity, 310.15 K [S·m2/mol]	molar conductivity, 323.15 K [S·m2/mol]
c1 = 0.001	1.13e-09	1.57e-09	–	–	–	–	–	–
c1 = 0.001841	–	–	0.006545	0.00844	0.009366	0.01041	0.01201	0.01524
c1 = 0.00244	–	–	0.006422	0.008268	0.009179	0.0102	0.01177	0.01489
c1 = 0.0025	1.12e-09	1.53e-09	–	–	–	–	–	–
c1 = 0.003031	–	–	0.006316	0.008109	0.009034	0.01001	0.01159	0.01469
c1 = 0.003615	–	–	0.006204	0.007973	0.008901	0.009837	0.01141	0.01444
c1 = 0.004193	–	–	0.006101	0.007849	0.008778	0.009703	0.01122	0.01422
c1 = 0.004763	–	–	0.006018	0.007749	0.008675	0.009566	0.01107	0.01401
c1 = 0.005	1.1e-09	1.48e-09	–	–	–	–	–	–
c1 = 0.005327	–	–	0.005942	0.007661	0.008577	0.009439	0.01094	0.01384
c1 = 0.005884	–	–	0.005866	0.00757	0.008481	0.00932	0.01079	0.01368
c1 = 0.006434	–	–	0.005795	0.007486	0.00839	0.009208	0.0107	0.01352
c1 = 0.006978	–	–	0.005725	0.007395	0.008298	0.009099	0.01057	0.01337
c1 = 0.007516	–	–	0.005655	0.00731	0.008205	0.008991	0.01046	0.01322
c1 = 0.008	1.05e-09	1.42e-09	–	–	–	–	–	–
c1 = 0.008048	–	–	0.005593	0.007232	0.00812	0.008893	0.01036	0.01308
c1 = 0.008573	–	–	0.005534	0.007159	0.00804	0.0088	0.01027	0.01295
c1 = 0.009093	–	–	0.005477	0.007089	0.007965	0.008713	0.01018	0.01283
c1 = 0.009607	–	–	0.005427	0.007027	0.007896	0.008633	0.01009	0.01271
c1 = 0.01	1.01e-09	1.38e-09	–	–	–	–	–	–
c1 = 0.01012	–	–	0.005377	0.006966	0.007829	0.008556	0.01001	0.0126
c1 = 0.01062	–	–	0.005329	0.006904	0.007761	0.008478	0.009923	0.01249
c1 = 0.01111	–	–	0.005284	0.006844	0.007695	0.008404	0.009841	0.01238
c1 = 0.01161	–	–	0.005242	0.006785	0.00763	0.008329	0.00976	0.01228
c1 = 0.01209	–	–	0.005196	0.006729	0.007567	0.008257	0.009679	0.01217
c1 = 0.01257	–	–	0.005156	0.006675	0.007501	0.00819	0.009603	0.01208
c1 = 0.01305	–	–	0.005118	0.006626	0.00745	0.008126	0.009532	0.01198
c1 = 0.01352	–	–	0.005078	0.006576	0.007395	0.008064	0.009461	0.01189
c1 = 0.01398	–	–	0.005038	0.006528	0.007343	0.008005	0.009394	0.01181
c1 = 0.01444	–	–	0.005003	0.006483	0.007291	0.007946	0.009328	0.01172
c1 = 0.0149	–	–	0.004966	0.006437	0.007239	0.007888	0.009261	0.01164
c1 = 0.01535	–	–	0.004929	0.00639	0.007188	0.007831	0.009196	0.01155
c1 = 0.01579	–	–	0.004894	0.006343	0.007138	0.007776	0.009132	0.01147
c1 = 0.01623	–	–	0.004861	0.006302	0.00709	0.007722	0.009069	0.01139
c1 = 0.01667	–	–	0.004832	0.006262	0.007045	0.007671	0.00901	0.01132

CN[C@@H](C)[C@H](O)c1ccccc1.Cl [ephedrine hydrochloride] + O
Conditions	binary diffusion coefficient, 298.15 K [m2/s]	binary diffusion coefficient, 310.15 K [m2/s]	molar conductivity, 283.15 K [S·m2/mol]	molar conductivity, 293.15 K [S·m2/mol]	molar conductivity, 298.15 K [S·m2/mol]	molar conductivity, 303.15 K [S·m2/mol]	molar conductivity, 310.15 K [S·m2/mol]	molar conductivity, 323.15 K [S·m2/mol]
c1 = 0.00125	1.15e-09	1.57e-09	–	–	–	–	–	–
c1 = 0.00184	–	–	0.006571	0.008375	0.009463	0.01041	0.01195	0.01495
c1 = 0.002438	–	–	0.006463	0.008198	0.009282	0.01023	0.01173	0.01471
c1 = 0.0025	1.1e-09	1.56e-09	–	–	–	–	–	–
c1 = 0.00303	–	–	0.006355	0.008059	0.009127	0.01006	0.01154	0.01449
c1 = 0.003614	–	–	0.00628	0.007907	0.008991	0.009914	0.01139	0.01427
c1 = 0.004191	–	–	0.006181	0.007775	0.00886	0.009802	0.01125	0.01408
c1 = 0.004761	–	–	0.006103	0.007663	0.008753	0.009663	0.01108	0.01392
c1 = 0.00499	1.09e-09	1.5e-09	–	–	–	–	–	–
c1 = 0.005324	–	–	0.006044	0.007564	0.008653	0.009567	0.01096	0.01377
c1 = 0.005881	–	–	0.00599	0.007468	0.008556	0.009474	0.01085	0.01356
c1 = 0.006431	–	–	0.005925	0.007377	0.008465	0.009363	0.01074	0.01344
c1 = 0.006975	–	–	0.00586	0.007288	0.008374	0.009271	0.01064	0.01332
c1 = 0.00746	1.03e-09	1.45e-09	–	–	–	–	–	–
c1 = 0.007513	–	–	0.005794	0.007199	0.008283	0.009197	0.01052	0.01318
c1 = 0.008044	–	–	0.005736	0.007119	0.008199	0.00911	0.01042	0.01307
c1 = 0.008569	–	–	0.005685	0.007044	0.00812	0.009028	0.01033	0.01295
c1 = 0.009089	–	–	0.005635	0.006974	0.008044	0.008949	0.01023	0.01284
c1 = 0.009602	–	–	0.005584	0.006908	0.007975	0.008878	0.01015	0.01274
c1 = 0.01	1e-09	1.41e-09	–	–	–	–	–	–
c1 = 0.01011	–	–	0.005537	0.006846	0.007908	0.008807	0.01007	0.01264
c1 = 0.01061	–	–	0.005491	0.006795	0.00784	0.008734	0.009982	0.01254
c1 = 0.01111	–	–	0.005446	0.006723	0.007774	0.008665	0.009901	0.01244
c1 = 0.0116	–	–	0.005401	0.006663	0.007709	0.008596	0.009821	0.01234
c1 = 0.01209	–	–	0.005359	0.006604	0.007646	0.008528	0.009742	0.01226
c1 = 0.01256	–	–	0.00532	0.006549	0.007586	0.008464	0.009673	0.01215
c1 = 0.01304	–	–	0.005281	0.006498	0.00753	0.008437	0.009602	0.01206
c1 = 0.01351	–	–	0.005244	0.006448	0.007474	0.008343	0.009533	0.01197
c1 = 0.01397	–	–	0.00521	0.0064	0.007422	0.008286	0.009467	0.01189
c1 = 0.01443	–	–	0.005176	0.006354	0.00737	0.00823	0.009401	0.01181
c1 = 0.01489	–	–	0.00514	0.006307	0.007318	0.008174	0.009336	0.01172
c1 = 0.01534	–	–	0.005107	0.00626	0.007267	0.008118	0.009271	0.01164
c1 = 0.01579	–	–	0.005075	0.006217	0.007217	0.008064	0.009208	0.01156
c1 = 0.01623	–	–	0.005042	0.006174	0.00717	0.008012	0.009146	0.01149
c1 = 0.01666	–	–	0.005011	0.006133	0.007125	0.007962	0.009088	0.01141
